How the values were obtained:
[1] = target: human orexin-2 receptor (Homo sapiens (Human), UniProt O43614); assay: In vitro assay: intracellular calcium measurements (FLIPR), antagonistic activity; format: cell-based; settings: CHO cells expressing human orexin-2 receptor, orexin-A agonist, geometric mean, read-out: IC50 Ox2
How it was run: (§1)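 Dye-loaded CHO cells expressing either human orexin receptor are exposed to test antagonist for 120 min, then stimulated with orexin-A at 3 nM.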

[2] = target: human orexin-1 receptor (Homo sapiens (Human), UniProt O43613); assay: as above; format: cell-based; settings: CHO cells expressing human orexin-1 receptor, orexin-A agonist, geometric mean, read-out: IC50 Ox1
Chain of human orexin-1 receptor (O43613 whole entry): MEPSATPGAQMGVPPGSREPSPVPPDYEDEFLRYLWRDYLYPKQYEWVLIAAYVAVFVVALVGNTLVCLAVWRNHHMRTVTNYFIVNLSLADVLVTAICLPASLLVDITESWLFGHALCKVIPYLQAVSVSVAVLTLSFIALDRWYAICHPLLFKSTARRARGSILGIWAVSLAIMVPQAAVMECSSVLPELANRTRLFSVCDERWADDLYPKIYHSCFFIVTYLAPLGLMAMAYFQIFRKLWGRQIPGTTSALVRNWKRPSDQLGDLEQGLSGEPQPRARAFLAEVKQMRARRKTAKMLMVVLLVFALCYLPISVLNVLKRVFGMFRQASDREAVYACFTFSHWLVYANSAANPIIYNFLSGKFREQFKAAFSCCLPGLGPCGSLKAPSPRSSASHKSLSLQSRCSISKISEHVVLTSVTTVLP
How it was run: as §1

Chain of human orexin-2 receptor (O43614 whole entry): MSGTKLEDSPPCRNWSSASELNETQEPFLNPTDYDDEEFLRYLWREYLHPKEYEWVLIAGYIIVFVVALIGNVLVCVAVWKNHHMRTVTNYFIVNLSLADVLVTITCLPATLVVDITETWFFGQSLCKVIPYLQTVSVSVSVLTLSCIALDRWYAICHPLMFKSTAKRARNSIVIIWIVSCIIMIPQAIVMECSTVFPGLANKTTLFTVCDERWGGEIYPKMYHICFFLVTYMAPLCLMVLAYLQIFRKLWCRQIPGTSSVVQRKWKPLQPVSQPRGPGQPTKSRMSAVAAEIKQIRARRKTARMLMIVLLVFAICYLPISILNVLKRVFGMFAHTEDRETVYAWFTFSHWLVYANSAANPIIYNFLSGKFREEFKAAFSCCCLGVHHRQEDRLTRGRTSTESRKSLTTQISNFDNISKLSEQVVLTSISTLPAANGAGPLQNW

IC50 [1] [nM] | IC50 [2] [nM] | SMILES
2260 | 93 | Cc1ccc(-c2ncccn2)c(C(=O)N2CC[C@H](C)[C@H]2c2nc3cc(C)c(C)cc3[nH]2)c1 [Ex. 4.183]
479 | 344 | C=C1C[C@@H](c2nc3cc(C(C)(C)C)ccc3[nH]2)N(C(=O)c2cc(OC(F)(F)F)ccc2-n2nccn2)C1 [Ex. 6.169]
7 | 0.7 | CO[C@@H]1C[C@@H](c2nc3ccc(Cl)c(C)c3[nH]2)N(C(=O)c2nc(N(C)C)sc2-c2cccc(Cl)c2)C1 [Ex. 3.41]
17 | 23 | CCn1c([C@]2(C)CCCN2C(=O)c2cc(C)ccc2-c2cccc(C)c2)nc2cc(C)c(C)cc21 [Ex. 7.27]
11 | 6 | Cc1ccc(-c2cccc(F)c2)c(C(=O)N2CCC[C@@]2(C)c2nc3cc(C)c(C)cc3[nH]2)c1 [Ex. 5.97]
20 | 11 | Cc1ccc(-c2ccc(C)cc2C(=O)N2CCC[C@@]2(C)c2nc3cc(C)c(C)cc3n2C)cc1 [Ex. 7.37]
32 | 13 | Cc1ccc(-c2ccc(F)cc2)c(C(=O)N2CCC[C@@]2(C)c2nc3cc(C)c(C)cc3[nH]2)c1 [Ex. 5.96]
86 | 19 | COc1ccc(-c2ccc3c(c2)OCO3)c(C(=O)N2CCC[C@@]2(C)c2nc3c(C)c(Cl)ccc3[nH]2)c1F [Ex. 5.304]
22 | 1450 | COc1ccc2nc([C@@H]3CCCN3C(=O)c3c(C)cccc3-n3nccn3)[nH]c2c1 [Ex. 1.161]
14 | 2 | CSc1cccc2nc([C@@H]3CCCN3C(=O)c3cnc(C)nc3-c3ccc(Br)c(Cl)c3)[nH]c12 [Ex. 1.90]
274 | 98 | Cc1ccc(-c2cccnc2)c(C(=O)N2CCC[C@@]2(C)c2nc3ccc(Cl)c(C)c3[nH]2)c1 [Ex. 5.217]
248 | 86 | Cc1nc(C(=O)N2CCCC2c2nc3c(C(C)C)cccc3[nH]2)c(-c2cccc(Cl)c2)s1 (stereo not drawn) [Ex. 1.116]
571 | 1.5 | Cc1ccc(-c2ccccc2)c(C(=O)N2CC[C@H](C)[C@H]2c2nc3c(C)c(Cl)ccc3[nH]2)c1F [Ex. 4.171]
87 | 68 | CSc1cccc2[nH]c([C@@H]3CCCN3C(=O)c3c(-n4nccn4)ccc(C)c3F)nc12 [Ex. 1.174]
46 | 192 | Cc1nc(C(=O)N2CCCC2c2nc3c4c(ccc3[nH]2)OCCO4)c(-c2ccccc2)s1 (stereo not drawn) [Ex. 1.140]
669 | 132 | Cc1ccc(-n2nccn2)c(C(=O)N2CC[C@H](C)[C@H]2c2nc3cc(C)ccc3[nH]2)c1 [Ex. 4.2]
15 | 27 | COc1cc2nc([C@]3(C)CCCN3C(=O)c3cc(C)ccc3-n3cccn3)[nH]c2cc1OC [Ex. 5.82]
281 | 176 | COc1cc2nc([C@@H]3[C@@H](C)CCN3C(=O)c3cc(C(F)(F)F)ccc3-n3nccn3)[nH]c2cc1OC [Ex. 4.47]
2060 | 20 | Cc1ccc(-c2nc(C(=O)N3CCC[C@@]3(C)c3nc4c(C)c(Cl)ccc4[nH]3)c(-c3ccc(F)cc3)s2)cc1 [Ex. 5.232]
2570 | 16 | Cc1cc2[nH]c([C@@H]3[C@@H](C)CCN3C(=O)c3c(-c4cccnc4)ccc(C)c3F)nc2cc1Cl [Ex. 4.117]
457 | 2 | Cc1ccc(-c2ccccc2)c(C(=O)N2CC[C@H](C)[C@H]2c2nc3c(C)c(Cl)ccc3[nH]2)c1 [Ex. 4.172]
21 | 23 | COc1ccc(-c2cccc(OC(F)(F)F)c2)c(C(=O)N2CCC[C@@]2(C)c2nc3c(C)c(Cl)ccc3[nH]2)c1F [Ex. 5.309]
714 | 39 | C[C@@]1(c2nc3ccc(C(F)(F)F)cc3[nH]2)CCCN1C(=O)c1nc(-c2ccccc2F)sc1-c1ccc(F)cc1 [Ex. 5.294]
1660 | 14 | Cc1ccc(-c2cccnc2)c(C(=O)N2CC[C@H](C)[C@H]2c2nc3cc(Cl)c(C)cc3[nH]2)c1 [Ex. 4.104]

Reference: patent US9732075B2, “Benzimidazole-proline derivatives” (IDORSIA PHARMACEUTICALS LTD, priority 2012, dated 2017)
